Source: US10744233B2, “Crystallization inhibitor compositions for implantable urological devices” (Innovative Surface Technologies, Inc., priority 2016, dated 2020)

Assays:
[1] = Encrustation assay in artificial urine without bacteria; conditions: two separate experiments (Table 3)
Procedure: Artificial urine solutions contained either:
The coatings were analyzed for encrustation.
In addition, both the Wet 1 and Dry POC coatings were analyzed for encrustation using the same procedure described previously.

[2] = Osteopontin elution assay (ELISA); type: physicochemical; conditions: 1X PBS, 37° C.
Procedure: Osteopontin Elution Assay
To determine the amount of osteopontin released, coated Parylene™ coated discs were placed in 2 mL of 1×PBS for up to 30 days. The buffer was exchanged at approximately 30 minutes, 1 hour, 1 day, 5 days, 10 days, 15 days, and 30 days. Eluted samples were refrigerated until assaying. Osteopontin was quantified using an Osteopontin ELISA kit (R &D Systems, Mpls, MN) following the kit's instructions.
Sample discs coated with either osteopontin loaded PLGA coatings or empty PLGA coatings were placed in 1×PBS for elution over 30 days at 37° C., with the elution buffer exchanged at days 1, 5, 10, 15, and 30.
Total release per disc was 0.3 ng osteopontin released over 30 days (6-mg PLGA coating/3 ng osteopontin loading per disc).

| Molecule | Reduction of encrustation compared to control empty PLGA [1] | Reduction of encrustation compared to uncoated [1] | Osteopontin release period ([2]; 30 days) | Total osteopontin release per disc ([2]; over 30 days, 6-mg PLGA coating/3 ng osteopontin loading per disc) [ng] |
| --- | --- | --- | --- | --- |
| O=C(O)CC(O)(CC(=O)O)C(=O)O [citric acid] | 26-48% | up to 66% | – | – |
| osteopontin: human osteopontin (R&D Systems), sialoprotein; in b151 it is released from the osteopontin-loaded PLGA coating | – | – | released over the entire 30-day period | 0.3 |
